The numbers were not newly measured in patent US20040148013A1, “Stent-based delivery statins to prevent restenosis” (priority 2003, published 2004), which cites them from elsewhere.

The subject of one series is neointimal accumulation. To be noted: in vivo, rat carotid artery injury model.

For the compound `CC(=O)O[C@H]1C(=O)[C@@]2(C)[C@H]([C@H](OC(=O)c3ccccc3)[C@]3(O)C[C@H](OC(=O)[C@H](O)[C@@H](NC(=O)c4ccccc4)c4ccccc4)C(C)=C1C3(C)C)[C@]1(OC(C)=O)CO[C@@H]1C[C@@H]2O` [Taxol®, Paclitaxel], the induction of apoptosis result with SMC (biologically relevant concentrations) is “does not appear to induce apoptosis”. Further, in the series with SMC (in vitro), the SMC proliferation result is “inhibited” and the “platelet-derived growth factor-stimulated SMC migration” value is recorded as “inhibited”. Further, the neointimal accumulation entry with neointimal accumulation is reported as “inhibited neointimal accumulation”.
